Counter-ions that a name gives are not always drawn. Like-named read-outs stand apart in the source and are kept apart here. Residues, ends and D or L forms follow the SMILES beside them.
Columns and labels:
Type in all cases: biochemical
[1] = biological target: T1, recombinant PRL-1 (Homo sapiens, UniProt Q93096); assay: In vitro phosphatase assay (DiFMUP hydrolysis), PRL-1; note: test concentration or dose not given here
T1 construct: 6xHis (N, cleaved yes); made in house; host or cells: E. coli One Shot BL21 Star
T1 sequence (Q93096 1-173): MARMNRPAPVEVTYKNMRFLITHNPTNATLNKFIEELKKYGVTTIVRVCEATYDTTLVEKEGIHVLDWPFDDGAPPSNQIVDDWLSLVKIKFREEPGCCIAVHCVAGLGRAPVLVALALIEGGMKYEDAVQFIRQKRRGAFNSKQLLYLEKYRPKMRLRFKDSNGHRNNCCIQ

[2] = biological target: T2, recombinant PRL-3 (Homo sapiens, UniProt O75365); assay: In vitro phosphatase assay (DiFMUP hydrolysis), PRL-3; note: test concentration or dose not given here
T2 construct: 6xHis (N, cleaved yes); made in house; host or cells: E. coli One Shot BL21 Star

[3] = biological target: T3, recombinant PRL-2 (Homo sapiens, UniProt Q12974); assay: In vitro phosphatase assay (DiFMUP hydrolysis), PRL-2;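 note: PRL-2 activity read as DiFMUP hydrolysis after 20 min at room temperature with drug, enzyme first pre-reduced at 4 °C for 20 min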
T3 construct: 6xHis (N, cleaved yes); made in house; host or cells: E. coli One Shot BL21 Star
T3 sequence (Q12974 1-167): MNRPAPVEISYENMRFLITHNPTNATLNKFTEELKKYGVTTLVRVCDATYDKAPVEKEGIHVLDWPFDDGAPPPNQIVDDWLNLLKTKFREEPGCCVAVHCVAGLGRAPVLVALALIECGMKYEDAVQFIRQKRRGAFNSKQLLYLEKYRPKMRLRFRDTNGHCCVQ

[4] = FDA-approved drug screen, activity compared to DMSO
[5] = FDA-approved drug screen, compared to DMSO

T2 sequence (O75365 whole entry): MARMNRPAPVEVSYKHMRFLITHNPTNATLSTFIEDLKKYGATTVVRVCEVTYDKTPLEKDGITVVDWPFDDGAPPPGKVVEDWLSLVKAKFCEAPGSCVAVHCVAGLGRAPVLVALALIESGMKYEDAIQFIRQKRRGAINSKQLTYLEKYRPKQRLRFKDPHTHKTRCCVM

Row | % Phosphatase Activity (compared to DMSO) PRL-1 [1, 5] | % Phosphatase Activity (compared to DMSO) PRL-3 [2, 5] | % Phosphatase Activity (compared to DMSO) PRL-2 [3, 5] | Molecule | also measured
1 |  |  |  | C1CNCCN1 [Piperazine] | % Phosphatase Activity (compared to DMSO) PRL-1 [1]: 95%; % Phosphatase Activity (compared to DMSO) PRL-3 [2]: 71%; % Phosphatase Activity (compared to DMSO) PRL-2 [3]: 112%
2 |  |  |  | O=c1cc[nH]c(=O)[nH]1 [Uracil] | % Phosphatase Activity (compared to DMSO) PRL-1 [1, 4]: 100%; % Phosphatase Activity (compared to DMSO) PRL-3 [2, 4]: 69%; % Phosphatase Activity (compared to DMSO) PRL-2 [3, 4]: 93%
3 |  |  |  | CNCCCC12CCC(c3ccccc31)c1ccccc12 [Maprotiline HCl] | % Phosphatase Activity (compared to DMSO) PRL-1 [1]: 127%; % Phosphatase Activity (compared to DMSO) PRL-3 [2]: 87%; % Phosphatase Activity (compared to DMSO) PRL-2 [3]: 116%
4 |  |  |  | Nc1ccc(S(=O)(=O)Nc2nccs2)cc1 [Sulfathiazole] | % Phosphatase Activity (compared to DMSO) PRL-1 [1, 4]: 119%; % Phosphatase Activity (compared to DMSO) PRL-3 [2, 4]: 87%; % Phosphatase Activity (compared to DMSO) PRL-2 [3, 4]: 114%
5 | 99% | 101% | 87% | CCc1cc(/C(C)=N/OCc2ccc(C3CCCCC3)c(C(F)(F)F)c2)ccc1CN1CC(C(=O)O)C1 [BAF312 (Siponimod)] | 
6 | 106% | 69% | 102% | CCOC(=O)c1ncn2c1CN(C)C(=O)c1cc(F)ccc1-2 [Flumazenil] | 
7 | 92% | 85% | 95% | COC(=O)[C@H](Cc1ccccc1)NC(=O)[C@@H](N)CC(=O)O [Aspartame] (H-Asp-Phe-OMe) | 
8 |  |  |  | CCCCNC(=O)NS(=O)(=O)c1ccc(C)cc1 [Tolbutamide] | % Phosphatase Activity (compared to DMSO) PRL-1 [1, 4]: 104%; % Phosphatase Activity (compared to DMSO) PRL-3 [2, 4]: 91%; % Phosphatase Activity (compared to DMSO) PRL-2 [3, 4]: 119%
9 |  |  |  | CC[C@H](CO)Nc1nc(NCc2ccccc2)c2ncn(C(C)C)c2n1 [Roscovitine (Seliciclib,CYC202)] | % Phosphatase Activity (compared to DMSO) PRL-1 [1]: 108%; % Phosphatase Activity (compared to DMSO) PRL-3 [2]: 96%; % Phosphatase Activity (compared to DMSO) PRL-2 [3]: 111%
10 |  |  |  | Cc1[nH]c(/C=C2\C(=O)Nc3ccccc32)c(C)c1CCC(=O)O [TSU-68 (SU6668, Orantinib)] | % Phosphatase Activity (compared to DMSO) PRL-1 [1, 4]: 75%; % Phosphatase Activity (compared to DMSO) PRL-3 [2, 4]: 52%; % Phosphatase Activity (compared to DMSO) PRL-2 [3, 4]: 52%
11 |  |  |  | O=C1CN(/N=C/c2ccc([N+](=O)[O-])o2)C(=O)N1 [Nitrofurantoin] | % Phosphatase Activity (compared to DMSO) PRL-1 [1]: 76%; % Phosphatase Activity (compared to DMSO) PRL-3 [2]: 67%; % Phosphatase Activity (compared to DMSO) PRL-2 [3]: 63%
12 |  |  |  | O=P1(N(CCCl)CCCl)NCCCO1 (stereo not drawn) [Cyclophosphamide Monohydrate] | % Phosphatase Activity (compared to DMSO) PRL-1 [1]: 90%; % Phosphatase Activity (compared to DMSO) PRL-3 [2]: 94%; % Phosphatase Activity (compared to DMSO) PRL-2 [3]: 105%
13 | 102% | 86% | 105% | CC(C)C[C@H](NC(=O)CNC(=O)c1cc(Cl)ccc1Cl)B(O)O [MLN2238] | 
14 | 95% | 96% | 100% | O=C(CCNNC(=O)c1ccncc1)NCc1ccccc1 [Nialamide] | 
15 |  |  |  | CCCSc1ccc2nc(NC(=O)OC)[nH]c2c1 [Albendazole] | % Phosphatase Activity (compared to DMSO) PRL-1 [1]: 102%; % Phosphatase Activity (compared to DMSO) PRL-3 [2]: 78%; % Phosphatase Activity (compared to DMSO) PRL-2 [3]: 88%
16 | 108% | 97% | 123% | CCCCCOC(=O)Nc1nc(=O)n([C@@H]2O[C@H](C)[C@@H](O)[C@H]2O)cc1F [Capecitabine] | 
17 |  |  |  | Cn1c(=O)c2[nH]cnc2n(C)c1=O [Theophylline] | % Phosphatase Activity (compared to DMSO) PRL-1 [1, 4]: 105%; % Phosphatase Activity (compared to DMSO) PRL-3 [2, 4]: 84%; % Phosphatase Activity (compared to DMSO) PRL-2 [3, 4]: 98%
18 | 98% | 84% | 108% | Nc1ccccc1NC(=O)c1ccc(CNc2nccc(-c3cccnc3)n2)cc1 [Mocetinostat (MGCD0103)] | 
19 | 93% | 88% | 112% | C#C[C@]1(OC(C)=O)CC[C@H]2[C@@H]3CCC4=C[C@@H](OC(C)=O)CC[C@@H]4[C@H]3CC[C@@]21C [Ethynodiol diacetate] | 
20 | 106% | 79% | 113% | OC[C@H]1OC(O)[C@H](O)[C@@H](O)[C@@H]1O (stereo partly drawn) [Dextrose] | 
21 | 111% | 95% | 98% | NS(=O)(=O)NCCNc1nonc1/C(=N/O)Nc1ccc(F)c(Br)c1 [Epacadostat (INCB024360)] | 
22 | 97% | 95% | 107% | CCN(CCCc1ccccc1)CCCc1ccccc1 [Alverine Citrate] | 
23 |  |  |  | NS(=O)(=O)Cc1noc2ccccc12 [Zonisamide] | % Phosphatase Activity (compared to DMSO) PRL-1 [1, 4]: 104%; % Phosphatase Activity (compared to DMSO) PRL-3 [2, 4]: 78%; % Phosphatase Activity (compared to DMSO) PRL-2 [3, 4]: 89%

Row | Molecule | % Phosphatase Activity (compared to DMSO) PRL-1 [1, 5] | % Phosphatase Activity (compared to DMSO) PRL-3 [2, 5] | % Phosphatase Activity (compared to DMSO) PRL-2 [3, 5] | also measured
24 | CC1(C)CCC(c2ccc(Cl)cc2)=C(CN2CCN(c3ccc(C(=O)NS(=O)(=O)c4ccc(N[C@H](CCN5CCOCC5)CSc5ccccc5)c(S(=O)(=O)C(F)(F)F)c4)cc3)CC2)C1 [ABT-263 (Navitoclax)] | 90% | 81% | 75% | 
25 | Clc1ccc2c(c1)C(N1CCNCC1)=Nc1ccccc1O2 [Amoxapine] | 109% | 88% | 118% | 
26 | Cc1c(F)cc(C(=O)NC2CC2)cc1-c1ccc(C(=O)NCC(C)(C)C)cn1 [Losmapimod (GW856553X)] | 91% | 103% | 66% | 
27 | CC(=O)OCC(=O)[C@@]1(O)CC[C@H]2[C@@H]3CCC4=CC(=O)C=C[C@]4(C)[C@H]3[C@@H](O)C[C@@]21C [Prednisolone Acetate] | 105% | 80% | 102% | 
28 | Nafarelin Acetate | 91% | 91% | 91% | 
29 | Cl.O=C(OCC(O)CO)c1ccccc1Nc1ccnc2cc(Cl)ccc12 (stereo not drawn) [Glafenine HCl] | 77% | 80% | 71% | 
30 | O.S=c1[nH]cnc2nc[nH]c12 [6-Mercaptopurine (6-MP) Monohydrate] | 95% | 85% | 108% | 
31 | CC(C)(C)C(=O)OCOP(=O)(COCCn1cnc2c(N)ncnc21)OCOC(=O)C(C)(C)C [Adefovir Dipivoxil] | 92% | 74% | 88% | 
32 | CCOC(=O)c1ccc(O)cc1 [Ethylparaben] | 105% | 92% | 100% | 
